Data as given in patent US20240400547A1, “2,6-PIPERIDINEDIONE COMPOUND AND APPLICATION THEREOF” (MEDSHINE DISCOVERY INC., priority 2021, published 2024).
Where a name gives a salt, the structure may show the parent alone.

Tests used:
[1] = target: T1, IRAK4 (Homo sapiens, UniProt Q9NWZ3); experiment: Target protein degradation in K562 IRAK4-HiBiT cells (Nano-Glo HiBiT); format: cell-based; conditions: 16 to 18 hours; for Dmax: read-out: Maximum degradation rate
T1 construct: expressed in transfected cells; host or cells: K562 IRAK4-HiBiT cells
T1 sequence (Q9NWZ3 1-460): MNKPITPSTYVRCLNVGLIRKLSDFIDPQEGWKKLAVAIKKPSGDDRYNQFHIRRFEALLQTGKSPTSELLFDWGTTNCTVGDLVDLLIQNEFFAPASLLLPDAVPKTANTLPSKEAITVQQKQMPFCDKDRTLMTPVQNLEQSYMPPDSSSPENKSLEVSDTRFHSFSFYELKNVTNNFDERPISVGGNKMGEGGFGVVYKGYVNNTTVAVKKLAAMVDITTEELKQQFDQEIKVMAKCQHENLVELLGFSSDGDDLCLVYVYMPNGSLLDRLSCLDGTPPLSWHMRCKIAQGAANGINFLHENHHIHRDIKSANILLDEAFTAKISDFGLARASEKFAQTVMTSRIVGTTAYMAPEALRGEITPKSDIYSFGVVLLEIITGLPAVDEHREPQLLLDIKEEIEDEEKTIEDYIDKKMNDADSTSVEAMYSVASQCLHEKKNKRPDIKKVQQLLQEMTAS
Description: Experimental objective: The experiment aims to evaluate the degradation effect of the test compounds on the target protein IRAK4 in K562 IRAK4-HiBiT cells.
• Cells: K562 IRAK4-HiBiT cells • Culture medium: RPMI 1640+10% fetal bovine serum+2 mM glutamine+1 mM sodium pyruvate+penicillin/streptomycin. • Positive control: 1000 nM; negative control: 0.1% DMSO.
• (1). The powder of the compound to be tested was dissolved in DMSO to a storage concentration of 10 mM. A total of 9 μL of the 10 mM of the compound to be tested was manually pipetted into the 1st and 13th columns of the LDV plate using a pipettor; • (2). A volume of 6 μL of DMSO was added to columns 2-12 and 14-24 using a Multidrop Combi; • (3). A 3-fold dilution of the test compounds (3 μL+6 μL) was performed using Bravo, for columns 1-11 and 13-23; • (4). According to the plate layout, 25 nL of compound solution (columns 1-24 of the LDV plate) was transferred to the experimental plate using Echo; • (5) 25 nL of the 1 mM positive control solution was transferred to the assay plate as a 100% degradation control (i.e. LC, HPE), and 25 nL of DMSO was transferred to the assay plate as a 0% control (i.e. HC, ZPE).
• (1) The culture medium was discarded, and the cells were washed once with DPBS, digested with trypsin, counted, and prepared into a cell suspension of […]. • (2) Using the MultiDrop Combi at a medium speed, 25 μL/well of the cell suspension was added to the experimental plate containing the test compounds; • (3) The experimental plate containing cells was returned to the incubator and cultured for 16 to 18 hours at 37° C. and 5% CO2.
• (1). Using the MultiDrop Combi at a high speed, 25 μL/well of the assay reagent (NanoGlo lytic solution+substrate+LgBit protein) was added to the assay plate, followed by shaking for 10 minutes; • (2) The plate was centrifuged at 2000 rpm for 1 minute to remove any bubbles; • (3) Readings were obtained by using an Envision, US Luminescence reader.
To calculate the degradation rate (DR) of the test compounds, the following formula is used: IR (%)=(RLU vehicle control−RLU compound)/(RLU vehicle control−RLU positive control)×100%. The solvent control refers to the blank control. The degradation rates of compounds at different concentrations were calculated in Excel, and then XLFit software was used to plot inhibition curves and calculate relevant parameters, including minimum degradation rate, maximum degradation rate, and DC50.

[2] = target: T2, IKZF1 (Homo sapiens, UniProt Q13422+Q96SW2); experiment: In Cell Western of IKZF1 protein expression level in MM.1S cells; format: cell-based; conditions: IKZF1, MM.1S cells, 24 hours; for Dmax: MM1.S, read-out: Maximum degradation rate Dmax
T2 construct: host or cells: MM.1S cells
T2 sequence (Q13422 whole entry): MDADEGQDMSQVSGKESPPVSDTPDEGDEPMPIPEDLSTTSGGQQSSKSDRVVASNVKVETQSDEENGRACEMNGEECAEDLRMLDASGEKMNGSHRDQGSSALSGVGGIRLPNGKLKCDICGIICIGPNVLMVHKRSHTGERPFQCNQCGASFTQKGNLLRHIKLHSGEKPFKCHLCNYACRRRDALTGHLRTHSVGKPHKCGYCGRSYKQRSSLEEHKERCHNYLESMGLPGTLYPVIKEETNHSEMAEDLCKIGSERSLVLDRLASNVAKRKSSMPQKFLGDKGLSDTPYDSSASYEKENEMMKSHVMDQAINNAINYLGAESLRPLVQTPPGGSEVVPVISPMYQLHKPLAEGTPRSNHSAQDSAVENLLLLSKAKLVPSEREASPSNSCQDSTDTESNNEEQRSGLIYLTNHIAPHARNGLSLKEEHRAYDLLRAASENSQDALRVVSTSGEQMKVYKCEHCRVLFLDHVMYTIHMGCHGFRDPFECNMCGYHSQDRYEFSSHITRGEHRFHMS
T2 sequence (Q96SW2 whole entry): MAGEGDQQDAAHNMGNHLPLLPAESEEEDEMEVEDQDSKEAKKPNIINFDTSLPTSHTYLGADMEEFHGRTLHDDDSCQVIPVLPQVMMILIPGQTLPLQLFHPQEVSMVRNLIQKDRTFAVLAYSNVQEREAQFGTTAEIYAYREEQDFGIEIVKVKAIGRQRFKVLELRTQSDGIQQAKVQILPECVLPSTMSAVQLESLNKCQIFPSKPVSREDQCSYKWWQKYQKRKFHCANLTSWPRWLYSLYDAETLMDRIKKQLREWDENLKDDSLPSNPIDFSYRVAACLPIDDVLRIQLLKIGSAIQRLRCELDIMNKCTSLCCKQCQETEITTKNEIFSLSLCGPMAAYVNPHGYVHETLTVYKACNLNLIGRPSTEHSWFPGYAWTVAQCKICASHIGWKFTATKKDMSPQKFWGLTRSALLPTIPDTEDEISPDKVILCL
T2 sequence (Q16531 whole entry partner): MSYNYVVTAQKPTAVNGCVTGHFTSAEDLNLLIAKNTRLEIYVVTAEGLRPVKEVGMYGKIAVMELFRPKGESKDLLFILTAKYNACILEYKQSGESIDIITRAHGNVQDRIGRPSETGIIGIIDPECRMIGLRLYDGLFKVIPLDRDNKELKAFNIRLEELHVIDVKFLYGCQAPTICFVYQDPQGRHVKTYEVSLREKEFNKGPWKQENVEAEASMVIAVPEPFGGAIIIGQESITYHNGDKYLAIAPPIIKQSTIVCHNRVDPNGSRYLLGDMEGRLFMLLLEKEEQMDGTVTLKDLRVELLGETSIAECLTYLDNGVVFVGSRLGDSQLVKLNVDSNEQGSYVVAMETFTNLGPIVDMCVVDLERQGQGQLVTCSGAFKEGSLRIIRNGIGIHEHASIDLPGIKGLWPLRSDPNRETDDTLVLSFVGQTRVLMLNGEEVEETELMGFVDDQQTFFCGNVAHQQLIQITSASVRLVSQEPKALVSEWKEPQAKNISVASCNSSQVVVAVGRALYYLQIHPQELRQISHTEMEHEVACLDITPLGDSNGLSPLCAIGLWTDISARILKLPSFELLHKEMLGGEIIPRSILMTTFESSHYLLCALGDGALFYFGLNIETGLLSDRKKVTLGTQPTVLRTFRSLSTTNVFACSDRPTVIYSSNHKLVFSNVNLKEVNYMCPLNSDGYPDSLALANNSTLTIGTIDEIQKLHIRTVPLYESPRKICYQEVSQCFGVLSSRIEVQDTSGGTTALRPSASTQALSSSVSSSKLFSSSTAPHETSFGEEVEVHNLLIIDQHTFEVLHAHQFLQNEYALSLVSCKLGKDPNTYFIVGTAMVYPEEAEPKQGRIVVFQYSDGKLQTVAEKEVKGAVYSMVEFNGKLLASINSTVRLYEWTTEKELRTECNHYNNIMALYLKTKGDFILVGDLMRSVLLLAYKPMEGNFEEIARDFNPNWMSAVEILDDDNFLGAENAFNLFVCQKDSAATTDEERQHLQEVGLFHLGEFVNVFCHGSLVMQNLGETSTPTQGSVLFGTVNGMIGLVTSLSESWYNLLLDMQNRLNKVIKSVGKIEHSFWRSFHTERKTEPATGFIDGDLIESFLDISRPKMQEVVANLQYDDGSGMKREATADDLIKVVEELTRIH
Description: Experimental objective: The experiment aims to assess the degradation effect of the test compounds on IKZF1 and 1KZF3 proteins in MM.1S cells by evaluating the impact of the test compounds on the expression levels of IKZF1 and IZKZF3 proteins in MM.1S cells.
• Cell lines: MMN.1 S cell (sourced from ATCC; Cat. No CRL-2974) • Negative control: 0.100 DMSO.
• 1) Log phase MM.1 S cells were plated in a 96-well plate at 1.2×10^5 cells per well and cultured overnight; • 2) The next day, compounds were added with a starting concentration of 300 nM, diluted threefold across three replicate wells for 10 concentration gradients (including DMSO), and the cells were incubated for 24 hours in an incubator; • 3) The cells were centrifuged, and the supernatant was carefully removed. 150 μL of 4% paraformaldehyde fixative was added along the wall of the wells, avoiding contact with the bottom cells, and the cells were incubated at room temperature for 20 minutes; • 4) Lysis buffer was prepared by mixing 0.5 mL of 10% Triton X-100 with 49.5 mL of PBS until homogenous; • 5) 200 μL of lysis buffer was added along the well walls, again avoiding the bottom cells, and incubated on a shaker at room temperature for 5 minutes; • 6) The wells were washed four times; • 7) 150 μL of Licor […] Blocking Buffer was added along the well walls, avoiding the bottom cells, and the cells were incubated on a shaker at room temperature for 1.5 hours; • 8) Ikaros (D6N9Y) Rabbit mAb, Aiolos (D1C1E) Rabbit mAb and GAPDH mouse mAb (proteintech, 60004-1-Ig) were diluted at a 1:100 ratio using antibody dilution buffer; • 9) 50 μL of mixed antibody was added to each well with three replicate wells, and the cells were incubated overnight on a shaker at 4° C.; • 10) PBST (PBS with 0.1% Tween 20) was prepared; • 11) The primary antibodies were removed, and 200 μL of PBST was added along the well walls, avoiding the bottom cells, and the cells were incubated on a shaker at room temperature for 5 minutes; • 12) The wells were washed four times; • 13) Secondary antibody dilution buffer was prepared by adding Tween 20 to Licor […] Blocking Buffer to a final concentration of 0.2%; • 14) Fluorescent secondary antibodies were diluted in the dark at a 1:800 ratio. To 400 μL of secondary antibody dilution solution, 0.5 μL of each IRDye 800CW and IRDye 680CW (corresponding to the primary antibodies) was added. • 15) 50 μL of the diluted fluorescent secondary antibodies was added to each well and the cells were incubated on a shaker at room temperature in the dark for 60 minutes; • 16) The secondary antibodies were removed, and 200 μL of PBST was added along the well walls, avoiding the bottom cells, and the cells were incubated on a shaker at room temperature in the dark for 5 minutes; • 17) The wells were washed four times; immediately after washing, the Odyssey Gel Imaging System was used for detection at dual wavelengths of 700 nm and 800 nm.
Using GraphPad Prism 6 software, inhibition rate data was entered to fit the curve and calculate the DC50 value.

| Structure (SMILES) | DC50 [1] [nM] | Dmax [1] [%] | DC50 [2] [nM] | Dmax [2] [%] |
| --- | --- | --- | --- | --- |
| CC(C)(O)c1cc2nc([C@H]3CC[C@H](CN4CCN(CC(=O)Nc5ccc6c(ccc7onc(C8CCC(=O)NC8=O)c76)c5)CC4)CC3)sc2cc1NC(=O)c1cccc(C(F)(F)F)n1 (stereo partly drawn) [Formate of WX020] | 29.9 | 75.1 | 3.77 | 85.2 |
| O=C1CCC(c2noc3ccc4c(NC(=O)C(F)(F)C5CCN(CC6CCC(n7cc(NC(=O)c8coc(-c9ccnc(NCC%10CC%10)c9)n8)c(C(F)F)n7)CC6)CC5)cccc4c23)C(=O)N1 (stereo not drawn) [Hydrochloride of WX018] | 7.91 | 119 | 14.5 | 88.8 |
| O=C1CCC(c2noc3cc(NC(=O)CN4CCN(C[C@H]5CC[C@H](n6cc(NC(=O)c7coc(-c8ccnc(NCC9CC9)c8)n7)c(C(F)F)n6)CC5)CC4)ccc23)C(=O)N1 (stereo partly drawn) [Hydrochloride of WX025] | 2.53 | 105 | 14.4 | 72.2 |
| CC(C)(O)c1cc2nc([C@H]3CC[C@H](CN4CCN(CC(=O)Nc5ccc6c(C7CCC(=O)NC7=O)noc6c5)CC4)CC3)sc2cc1NC(=O)c1cccc(C(F)(F)F)n1 (stereo partly drawn) [Formate of WX026] | 0.78 | 80.3 | 5.64 | 84.4 |
| O=C1CCC(c2coc3cc(NC(=O)CN4CCN(C[C@H]5CC[C@H](N6CC(NC(=O)c7coc(-c8ccnc(NCC9CC9)c8)n7)C(C(F)F)N6)CC5)CC4)ccc23)C(=O)N1 (stereo partly drawn) [Hydrochloride of WX002] | 13.5 | 100 | – | – |
| CC(C)(O)c1cc2nc(C3CCC(CN4CCN(CC(=O)Nc5cccc6c5ccc5onc(C7CCC(=O)NC7=O)c56)CC4)CC3)sc2cc1NC(=O)c1cccc(C(F)(F)F)n1 (stereo not drawn) [Formate of WX017] | 4 | 73.9 | 15.7 | 62.9 |
| O=C1CCC(c2noc3c(NC(=O)CN4CCN(C[C@H]5CC[C@H](n6cc(NC(=O)c7coc(-c8ccnc(NCC9CC9)c8)n7)c(C(F)F)n6)CC5)CC4)cccc23)C(=O)N1 (stereo partly drawn) [Hydrochloride of WX028] | 2.11 | – | 26.7 | 49.7 |
| O=C1CCC(c2coc3ccc4c(NC(=O)CN5CCN(C[C@H]6CC[C@H](n7cc(NC(=O)c8coc(-c9ccnc(NCC%10CC%10)c9)n8)c(C(F)F)n7)CC6)CC5)cccc4c23)C(=O)N1 (stereo partly drawn) [Trifluoroacetate of WX011] | 9.6 | 105 | – | – |
